Tests used:
[1] = target: T1, human carboxylesterase 2 (CES2) (Homo sapiens, UniProt O00748); assay: Inhibition of CES2-mediated FD; assay type: biochemical; conditions: for selectivity for CES2 over CES1 (in words): CES2 versus CES1 IC50
T1 sequence (O00748 27-559): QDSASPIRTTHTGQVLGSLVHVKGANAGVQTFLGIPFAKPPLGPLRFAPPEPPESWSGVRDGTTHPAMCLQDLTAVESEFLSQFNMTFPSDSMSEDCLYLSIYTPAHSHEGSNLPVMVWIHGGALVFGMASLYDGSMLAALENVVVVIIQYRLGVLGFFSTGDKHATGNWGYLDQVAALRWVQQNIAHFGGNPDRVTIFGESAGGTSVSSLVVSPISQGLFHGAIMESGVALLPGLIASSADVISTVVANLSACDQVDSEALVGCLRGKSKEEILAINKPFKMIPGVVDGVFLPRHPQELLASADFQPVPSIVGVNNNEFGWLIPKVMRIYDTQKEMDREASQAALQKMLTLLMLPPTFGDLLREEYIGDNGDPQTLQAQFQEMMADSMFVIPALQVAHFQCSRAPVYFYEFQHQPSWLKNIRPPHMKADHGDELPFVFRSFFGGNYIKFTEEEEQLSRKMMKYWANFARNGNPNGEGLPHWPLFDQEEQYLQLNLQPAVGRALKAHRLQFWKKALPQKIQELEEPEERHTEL

[2] = target: T2, human carboxylesterase 1 (CES1) (Homo sapiens, UniProt P23141); assay: Inhibition of CES1-mediated DME; assay type: biochemical
T2 sequence (P23141 18-567): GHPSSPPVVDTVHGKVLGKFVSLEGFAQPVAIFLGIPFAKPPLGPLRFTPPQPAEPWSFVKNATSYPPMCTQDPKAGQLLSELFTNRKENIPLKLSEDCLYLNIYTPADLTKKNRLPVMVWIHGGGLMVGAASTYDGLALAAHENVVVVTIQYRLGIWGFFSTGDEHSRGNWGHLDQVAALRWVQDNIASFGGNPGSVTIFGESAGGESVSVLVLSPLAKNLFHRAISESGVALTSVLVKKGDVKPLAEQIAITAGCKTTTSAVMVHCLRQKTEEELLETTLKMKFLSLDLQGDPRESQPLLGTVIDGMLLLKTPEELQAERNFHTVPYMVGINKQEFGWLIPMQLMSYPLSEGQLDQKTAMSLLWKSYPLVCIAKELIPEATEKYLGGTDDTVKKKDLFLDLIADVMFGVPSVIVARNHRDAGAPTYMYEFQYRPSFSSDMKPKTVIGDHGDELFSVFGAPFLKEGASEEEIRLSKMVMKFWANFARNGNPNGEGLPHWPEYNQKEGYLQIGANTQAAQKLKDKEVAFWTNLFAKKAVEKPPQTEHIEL

SMILES	IC50 [1] [nM]	IC50 [2] [nM]	selectivity for CES2 over CES1 (in words) [1]
Cc1ccc(C(c2c(C)[nH]c3ccccc23)c2c(C)[nH]c3ccccc23)cc1 [4d]	280 ± 27	–	–
COc1ccc(C(c2c(C)[nH]c3ccccc23)c2c(C)[nH]c3ccccc23)cc1 [4g]	150 ± 32	2900 ± 240	good selectivity over CES1
Cc1[nH]c2ccccc2c1C(c1ccccc1Cl)c1c(C)[nH]c2ccccc12 [4h]	570 ± 86	–	–
Cc1[nH]c2ccccc2c1C(c1cccc(Br)c1)c1c(C)[nH]c2ccccc12 [4l]	3170 ± 810	–	–
Cc1cccc(C(c2c(C)[nH]c3ccccc23)c2c(C)[nH]c3ccccc23)c1 [4c]	340 ± 91	–	–
Cc1[nH]c2ccccc2c1C(c1cccc([N+](=O)[O-])c1)c1c(C)[nH]c2ccccc12 [4o]	350 ± 110	–	–
Cc1[nH]c2ccccc2c1C(c1ccc([N+](=O)[O-])cc1)c1c(C)[nH]c2ccccc12 [4p]	1220 ± 200	–	–
Cc1[nH]c2ccccc2c1C(c1ccc(Br)cc1)c1c(C)[nH]c2ccccc12 [4m]	1210 ± 280	–	–
Cc1[nH]c2ccccc2c1C(c1ccc(Cl)cc1)c1c(C)[nH]c2ccccc12 [4j]	840 ± 230	–	–
Cc1ccccc1C(c1c(C)[nH]c2ccccc12)c1c(C)[nH]c2ccccc12 [4b]	560 ± 160	–	–
COc1ccccc1C(c1c(C)[nH]c2ccccc12)c1c(C)[nH]c2ccccc12 [4e]	200 ± 44	–	–
Cc1[nH]c2ccccc2c1C(c1cccc(Cl)c1)c1c(C)[nH]c2ccccc12 [4i]	1230 ± 370	–	–
Cc1[nH]c2ccccc2c1C(c1ccccc1[N+](=O)[O-])c1c(C)[nH]c2ccccc12 [4n]	190 ± 45	3680 ± 430	good selectivity over CES1
COc1cccc(C(c2c(C)[nH]c3ccccc23)c2c(C)[nH]c3ccccc23)c1 [4f]	1280 ± 240	–	–
Cc1[nH]c2ccccc2c1C(c1ccccc1Br)c1c(C)[nH]c2ccccc12 [4k]	350 ± 91	–	–

— PMC9076199 (RSC Advances, 2019)
